Assay results reported in patent US20060258598A1, “Alpha-keto carbonyl calpain inhibitors” (priority 2003, published 2006).

Key:
human μ-calpain = target: T1, human μ-calpain (Homo sapiens, UniProt P07384); test: Enzymatic calpain inhibition assay; assay type: biochemical; settings: substrate Suc-Leu-Tyr-AMC, read-out: Calp I IC50
T1 construct: purchased Calbiochem
T1 sequence (P07384 1-714): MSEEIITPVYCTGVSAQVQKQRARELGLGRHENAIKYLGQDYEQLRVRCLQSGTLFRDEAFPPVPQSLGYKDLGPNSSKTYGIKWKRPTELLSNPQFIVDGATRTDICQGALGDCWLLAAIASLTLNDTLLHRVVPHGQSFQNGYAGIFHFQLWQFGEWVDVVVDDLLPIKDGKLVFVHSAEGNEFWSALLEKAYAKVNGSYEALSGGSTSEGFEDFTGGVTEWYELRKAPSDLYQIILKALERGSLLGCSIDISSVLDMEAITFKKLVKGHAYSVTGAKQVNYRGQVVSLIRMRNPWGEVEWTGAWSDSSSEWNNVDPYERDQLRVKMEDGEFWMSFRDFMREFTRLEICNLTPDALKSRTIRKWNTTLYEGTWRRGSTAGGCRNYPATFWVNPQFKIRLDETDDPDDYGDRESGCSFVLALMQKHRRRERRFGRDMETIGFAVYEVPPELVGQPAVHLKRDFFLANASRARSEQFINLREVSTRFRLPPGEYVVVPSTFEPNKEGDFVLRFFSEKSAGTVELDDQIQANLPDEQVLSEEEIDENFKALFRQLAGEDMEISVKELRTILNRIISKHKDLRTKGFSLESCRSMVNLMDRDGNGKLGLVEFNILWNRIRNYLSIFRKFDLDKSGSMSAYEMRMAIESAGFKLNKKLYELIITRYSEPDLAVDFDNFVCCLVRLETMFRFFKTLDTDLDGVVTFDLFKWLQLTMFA
T1 sequence (P04632 1-268 partner): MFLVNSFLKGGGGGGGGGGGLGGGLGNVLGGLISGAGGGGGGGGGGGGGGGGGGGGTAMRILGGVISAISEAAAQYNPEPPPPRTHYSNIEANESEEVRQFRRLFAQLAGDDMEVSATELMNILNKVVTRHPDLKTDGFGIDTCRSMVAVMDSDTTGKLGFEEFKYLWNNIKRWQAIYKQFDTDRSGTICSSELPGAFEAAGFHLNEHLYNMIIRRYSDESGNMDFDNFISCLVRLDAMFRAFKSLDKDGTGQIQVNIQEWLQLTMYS
Procedure: The Ki value was also determined in some cases. These criteria were used to measure the inhibitory effect of the compounds (I) on calpain I, calpain II and cathepsin B.
Enzymatic Calpain Inhibition Assay
The inhibitory properties of calpain inhibitors are tested in 100 μl of a buffer containing 100 mM imidazole pH 7.5, 5 mM L-Cystein-HCl, 5 mM CaCl2, 250 μM of the calpain fluorogenic substrate Suc-Leu-Tyr-AMC (Sigma) (Sasaki et al., J. Biol. Chem., 1984, 259, 12489-12949) dissolved in 2.5 μl DMSO and 0.5 μg of human μ-calpain (Calbiochem). The inhibitors dissolved in 1 μl DMSO are added to the reaction buffer. The fluorescence of the cleavage product 7-amino-4-methylcoumarin (AMC) is followed in a SPECTRAmax GEMINI XS (Molecular Device) fluorimeter at λex=360 nm and λem=440 nm at 30° C. during 30 min at intervals of 30 sec in 96-well plates (Greiner). The initial reaction velocity at different inhibitor concentrations is plotted against the inhibitor concentration and the IC50 values determined graphically.

[1] = tested on: cellular calpains in C2C12 myoblasts; test: Calpain inhibition assay in C2C12 myoblasts; assay type: cell-based; settings: 2 h incubation, calcium ionophore Br-A-23187, read-out: Calp I IC50 Myoblast
Procedure: Calpain Inhibition Assay in C2C12 Myoblasts
This assay is aimed at monitoring the ability of the substance to inhibit cellular calpains. C2C12 myoblasts are grown in 96-well plates in growth medium (DMEM, 20% foetal calf serum) until they reach confluency. The growth medium is then replaced by fusion medium (DMEM, 5% horse serum). 24 hours later the fusion medium is replaced by fusion medium containing the test substances dissolved in 1 μl DMSO. After 2 hours of incubation at 37° C. the cells are loaded with the calpain fluorogenic substrate Suc-Leu-Tyr-AMC at 400 μM in 50 μl of a reaction buffer containing 135 mM NaCl; 5 mM KCl; 4 mM CaCl2; 1 mM MgCl2; 10 mM Glucose; 10 mM HEPES pH 7.25 for 20 min at room temperature. The calcium influx, necessary to activate the cellular calpains, is evoked by the addition of 50 μl reaction buffer containing 20 μM of the calcium ionophore Br-A-23187 (Molecular Probes). The fluorescence of the cleavage product AMC is measured as described above during 60 min at 37° C. at intervals of 1 min. The IC50 values are determined as described above. Comparison of the IC50 determined in the enzymatic calpain inhibition assay to the IC50 determined in the C2C12 myoblasts calpain inhibiton assay, allows to evaluate the cellular uptake or the membrane permeability of the substance.

[2] = tested on: Primary fibroblasts from donors with Friedreich Ataxia (FRDA); test: BSO assay (cell viability under BSO-induced oxidative stress); assay type: cell-based, human; settings: 24 h preincubation, 1 mM BSO; for EC50: Homo sapiens, Fibroblast
Procedure: Primary fibroblasts were derived from donors with molecular diagnosis for Friedreich Ataxia (FRDA) and control donors with no mitochondrial disease. Cell lines were obtained from Coriell Cell Repositories (Camden, N.J.; catalog numbers GM04078, GM08402 and GM08399 respectively). All cell types were diagnosed on the molecular level for intronic […] triplet repeat length of at least 400-450 repeats using a PCR-based method. Experiments were carried out as described in the literature (M. L. Jauslin et al., Human Mol. Genet., 2002, 11, 3055-3063): Cells were seeded in microtiter plates at a density of 4'000 cells per 100 μl in growth medium consisting of 25% (v/v) M199 EBS and 64% (v/v) MEM EBS without phenol red (Bioconcept, Allschwil, Switzerland) supplemented with 10% (v/v) fetal calf serum (PAA Laboratories, Linz, Austria), 100 U/ml penicillin, 100 μg/ml streptomycin (PAA Laboratories, Linz, Austria), 10 μg/ml insulin (Sigma, Buchs, Switzerland), 10 ng/ml EGF (Sigma, Buchs, Switzerland), 10 ng/ml bFGF (PreproTech, Rocky Hill, N.J.) and 2 mM glutamine (Sigma, Buchs, Switzerland). The cells were incubated in the presence of various test compounds for 24 h before addition of L-buthionine-(S,R)-sulfoximine (BSO) to a final concentration of 1 mM. Cell viability was measured after the first signs of toxicity appeared in the BSO-treated controls (typically after 16 to 48 h). The cells were stained for 60 min at room temperature in PBS with 1.2 μM calcein AM and 4 μM ethidium homodimer (Live/Dead assay, Molecular Probes, Eugene, Oreg.). Fluorescence intensity was measured with a Gemini Spectramax XS spectrofluorimeter (Molecular Devices, Sunnyvale, Calif.) using excitation and emission wavelengths of 485 nm and 525 nm respectively.

SMILES | IC50 (human μ-calpain) | IC50 [1] | EC50 [2] | BSO EC50 [2]
CCNC(=O)C(=O)[C@H](Cc1ccc(Cl)cc1)NC(=O)[C@@H](NC(=O)CCNC(=O)CCCCC1CCSS1)C(C)C (stereo partly drawn) [Example 172] | 40 nM | 30000 nM | 3000 nM | 
CCNC(=O)C(=O)[C@H](Cc1ccccc1)NC(=O)[C@@H](NC(=O)CCCCC1CCSS1)C(C)C (stereo partly drawn) [Example 138] | 80 nM | 3500 nM | 10000 nM | 
CCNC(=O)C(=O)[C@H](Cc1ccc([N+](=O)[O-])cc1)NC(=O)[C@H](CC(C)C)NC(=O)CCCCC1CCSS1 (stereo partly drawn) [Example 136] | 20 nM | 8000 nM |  | inactive
CCNC(=O)C(=O)[C@H](Cc1ccc(Br)cc1)NC(=O)[C@@H](NC(=O)CCCCC1CCS[S+]1[O-])C(C)C (stereo partly drawn) [Example 54] | 150 nM | 8000 nM | 5000 nM | 
CCNC(=O)C(=O)[C@H](Cc1ccc(F)cc1)NC(=O)[C@@H](NC(=O)CCCCC1CCSS1)C(C)C (stereo partly drawn) [Example 37] | 100 nM | 2500 nM |  | inactive
CCNC(=O)C(=O)[C@H](Cc1ccc(Cl)cc1)NC(=O)[C@H](CC(C)(C)C)NC(=O)CCCCC1CCS[S+]1[O-] (stereo partly drawn) [Example 28] | 180 nM | 4000 nM |  | inactive
CC(C)[C@H](NC(=O)CNC(=O)CCCCC1CCSS1)C(=O)N[C@@H](Cc1ccccc1)C(=O)C(=O)NCc1ccccc1 (stereo partly drawn) [Example 209] | 60 nM | 2500 nM | > 100000 nM | 
CCNC(=O)C(=O)[C@H](Cc1ccc(Cl)cc1)NC(=O)[C@@H](NC(=O)CCCCC1CCS[S+]1[O-])C(C)C (stereo partly drawn) [Example 2] | 80 nM | 6000 nM | 2000 nM | 
CCNC(=O)C(=O)[C@H](Cc1ccc(Cl)cc1)NC(=O)[C@H](CC(C)(C)C)NC(=O)CCCCC1CCSS1 (stereo partly drawn) [Example 27] | 100 nM | 3500 nM |  | inactive
CCNC(=O)C(=O)[C@H](Cc1ccc(Cl)cc1)NC(=O)[C@@H](NC(=O)CCCCNC(=O)CCCCC1CCSS1)C(C)C (stereo partly drawn) [Example 175] | 100 nM | 20000 nM | > 100000 nM | 
CCNC(=O)C(=O)[C@H](Cc1ccccc1)NC(=O)[C@@H](NC(=O)CNC(=O)CCCCC1CCSS1)C(C)C (stereo partly drawn) [Example 207] | 47 nM | 8000 nM | 30000 nM | 
CCNC(=O)C(=O)[C@H](Cc1ccc(C#N)cc1)NC(=O)[C@H](CC(C)C)NC(=O)CCCCC1CCS[S+]1[O-] (stereo partly drawn) [Example 133] | 50 nM | 2500 nM | 15000 nM | 
Cc1ccc(S(=O)(=O)CNC(=O)C(=O)[C@H](Cc2ccc(Cl)cc2)NC(=O)[C@@H](NC(=O)CCCCC2CCSS2)C(C)C)cc1 (stereo partly drawn) [Example 13] | 200 nM | 500 nM | 1000 nM | 
CCNC(=O)C(=O)[C@H](Cc1ccc(F)cc1)NC(=O)[C@@H](NC(=O)CCCCC1CCS[S+]1[O-])C(C)C (stereo partly drawn) [Example 38] | 180 nM | 7000 nM | 20000 nM | 
CCNC(=O)C(=O)[C@H](Cc1ccc(OC)cc1)NC(=O)[C@@H](NC(=O)c1ccc(NC(=O)CCCCC2CCSS2)cc1)C(C)C (stereo partly drawn) [Example 196] | > 1000 nM | 400 nM | 2000 nM | 
CCNC(=O)C(=O)[C@H](Cc1ccc(Cl)cc1)NC(=O)[C@H](CC(C)C)NC(=O)CCCCC1CCS[S+]1[O-] (stereo partly drawn) [Example 16] | 50 nM | 2000 nM | 4000 nM | 
CCNC(=O)C(=O)[C@H](Cc1ccc(O)cc1)NC(=O)[C@@H](NC(=O)CCCCC1CCSS1)C(C)C (stereo partly drawn) [Example 80] | 150 nM | 2500 nM | 6000 nM | 
CCNC(=O)C(=O)[C@H](Cc1ccc(Cl)cc1Cl)NC(=O)[C@H](CC(C)C)NC(=O)CCCCC1CCS[S+]1[O-] (stereo partly drawn) [Example 36] | 40 nM | 5000 nM | 3000 nM | 
CCNC(=O)C(=O)[C@H](Cc1ccc(Cl)cc1)NC(=O)[C@@H](NC(=O)CCCC1CCCS1)C(C)C (stereo partly drawn) [Example 5] | 120 nM | 2000 nM | 2000 nM | 
CCNC(=O)C(=O)[C@H](Cc1ccc(OC)cc1)NC(=O)[C@@H](NC(=O)c1ccccc1NC(=O)CCCCC1CCSS1)C(C)C (stereo partly drawn) [Example 198] | 26 nM | 1800 nM | 8000 nM | 
CCNC(=O)C(=O)[C@H](Cc1ccc(Cl)c(Cl)c1)NC(=O)[C@H](CC(C)C)NC(=O)CCCCC1CCSS1 (stereo partly drawn) [Example 31] | 30 nM | 2500 nM | 15000 nM | 
CCNC(=O)C(=O)[C@H](Cc1ccccc1)NC(=O)[C@H](CC(C)(C)C)NC(=O)CCCCC1CCS[S+]1[O-] (stereo partly drawn) [Example 144] | 80 nM | 5000 nM | 7000 nM | 
